Assay results: ChEMBL document CHEMBL5291721, “A preclinical secondary pharmacology resource illuminates target-adverse drug reaction associations of marketed drugs” (Nat Commun, 2023)

Legend:
[1] = biological target: T1, Type-1 angiotensin II receptor (Homo sapiens, UniProt P30556)
T1 sequence (P30556 whole entry): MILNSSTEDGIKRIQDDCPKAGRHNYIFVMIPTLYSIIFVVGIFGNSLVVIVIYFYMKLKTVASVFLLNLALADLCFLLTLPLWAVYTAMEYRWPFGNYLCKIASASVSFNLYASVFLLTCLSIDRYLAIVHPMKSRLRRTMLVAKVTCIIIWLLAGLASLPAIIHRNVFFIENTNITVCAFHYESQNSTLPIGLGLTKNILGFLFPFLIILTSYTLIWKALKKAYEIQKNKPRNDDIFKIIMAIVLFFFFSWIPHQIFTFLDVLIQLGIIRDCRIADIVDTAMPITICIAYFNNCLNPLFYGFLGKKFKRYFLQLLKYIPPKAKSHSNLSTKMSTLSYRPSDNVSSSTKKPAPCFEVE

[2] = biological target: T2, Type-2 angiotensin II receptor (Homo sapiens, UniProt P50052); assay type: functional
T2 sequence (P50052 whole entry): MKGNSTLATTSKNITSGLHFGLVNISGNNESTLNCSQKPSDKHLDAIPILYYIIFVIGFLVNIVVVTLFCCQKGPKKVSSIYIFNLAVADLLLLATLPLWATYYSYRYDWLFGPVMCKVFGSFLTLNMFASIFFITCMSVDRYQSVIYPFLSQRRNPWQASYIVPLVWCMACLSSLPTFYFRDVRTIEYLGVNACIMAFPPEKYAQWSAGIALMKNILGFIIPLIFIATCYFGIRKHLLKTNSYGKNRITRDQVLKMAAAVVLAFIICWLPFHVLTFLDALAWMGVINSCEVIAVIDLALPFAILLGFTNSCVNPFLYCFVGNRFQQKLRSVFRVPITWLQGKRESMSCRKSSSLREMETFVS

[3] = biological target: T3, 5-hydroxytryptamine receptor 1A (Homo sapiens, UniProt P08908)
T3 sequence (P08908 whole entry): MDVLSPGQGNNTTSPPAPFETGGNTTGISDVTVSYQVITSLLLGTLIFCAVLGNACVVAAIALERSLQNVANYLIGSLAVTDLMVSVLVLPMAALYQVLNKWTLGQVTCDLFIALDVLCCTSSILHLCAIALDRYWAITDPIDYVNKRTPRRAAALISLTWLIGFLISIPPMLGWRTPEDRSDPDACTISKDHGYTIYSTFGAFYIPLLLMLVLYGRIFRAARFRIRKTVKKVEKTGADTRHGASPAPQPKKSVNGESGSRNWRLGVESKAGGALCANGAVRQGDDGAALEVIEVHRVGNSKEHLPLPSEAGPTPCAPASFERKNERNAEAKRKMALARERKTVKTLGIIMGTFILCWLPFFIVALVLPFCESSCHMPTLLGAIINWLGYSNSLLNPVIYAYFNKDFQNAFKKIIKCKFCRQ

[4] = biological target: Beta-1 adrenergic receptor (Homo sapiens, UniProt P08588); assay type: functional, cell-based
Chain of Beta-1 adrenergic receptor (P08588 whole entry): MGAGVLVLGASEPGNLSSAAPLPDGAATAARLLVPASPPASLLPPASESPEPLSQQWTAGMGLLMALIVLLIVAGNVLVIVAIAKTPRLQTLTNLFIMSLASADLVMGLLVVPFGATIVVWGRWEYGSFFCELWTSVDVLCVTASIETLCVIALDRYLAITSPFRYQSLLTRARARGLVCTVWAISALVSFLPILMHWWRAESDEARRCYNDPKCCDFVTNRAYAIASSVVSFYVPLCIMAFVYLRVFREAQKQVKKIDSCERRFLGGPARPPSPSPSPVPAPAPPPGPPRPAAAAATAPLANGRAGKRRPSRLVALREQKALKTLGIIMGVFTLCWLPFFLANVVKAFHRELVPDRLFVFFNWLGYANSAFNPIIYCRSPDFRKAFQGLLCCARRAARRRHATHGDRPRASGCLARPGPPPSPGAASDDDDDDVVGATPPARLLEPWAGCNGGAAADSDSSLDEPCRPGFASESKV

[5] = biological target: T4, Retinoic acid receptor beta (Homo sapiens, UniProt P10826); assay type: functional, cell-based
T4 sequence (P10826 whole entry): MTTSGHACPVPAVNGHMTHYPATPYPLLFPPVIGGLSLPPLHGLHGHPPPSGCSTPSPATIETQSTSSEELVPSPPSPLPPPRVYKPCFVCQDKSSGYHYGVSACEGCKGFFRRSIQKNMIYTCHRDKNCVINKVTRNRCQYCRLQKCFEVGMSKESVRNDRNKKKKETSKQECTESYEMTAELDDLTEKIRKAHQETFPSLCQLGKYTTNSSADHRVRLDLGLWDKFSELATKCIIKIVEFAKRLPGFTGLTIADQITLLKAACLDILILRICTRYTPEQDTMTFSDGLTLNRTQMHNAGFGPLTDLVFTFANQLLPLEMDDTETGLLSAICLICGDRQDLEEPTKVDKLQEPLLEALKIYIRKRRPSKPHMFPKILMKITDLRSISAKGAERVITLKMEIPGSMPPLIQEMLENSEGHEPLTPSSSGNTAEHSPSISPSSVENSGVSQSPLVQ

[6] = biological target: T1, Type-1 angiotensin II receptor; remark: listed apart in the source
[7] = biological target: T5, Retinoic acid receptor gamma (Homo sapiens, UniProt P13631); assay type: functional, cell-based
T5 sequence (P13631 whole entry): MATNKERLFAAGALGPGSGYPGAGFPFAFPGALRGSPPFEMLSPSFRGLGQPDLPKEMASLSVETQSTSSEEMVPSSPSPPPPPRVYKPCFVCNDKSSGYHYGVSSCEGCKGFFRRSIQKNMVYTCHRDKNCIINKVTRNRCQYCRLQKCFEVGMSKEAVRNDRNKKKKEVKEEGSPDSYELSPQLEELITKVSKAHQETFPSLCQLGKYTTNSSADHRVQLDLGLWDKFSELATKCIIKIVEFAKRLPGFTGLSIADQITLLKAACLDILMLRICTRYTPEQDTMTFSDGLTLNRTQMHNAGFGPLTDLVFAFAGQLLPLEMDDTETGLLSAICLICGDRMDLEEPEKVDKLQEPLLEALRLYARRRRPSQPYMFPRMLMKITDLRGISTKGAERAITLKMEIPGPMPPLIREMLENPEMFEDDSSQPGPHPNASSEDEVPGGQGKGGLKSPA

[8] = biological target: Oxysterols receptor LXR-beta (Homo sapiens, UniProt P55055); assay type: functional
Chain of Oxysterols receptor LXR-beta (P55055 whole entry): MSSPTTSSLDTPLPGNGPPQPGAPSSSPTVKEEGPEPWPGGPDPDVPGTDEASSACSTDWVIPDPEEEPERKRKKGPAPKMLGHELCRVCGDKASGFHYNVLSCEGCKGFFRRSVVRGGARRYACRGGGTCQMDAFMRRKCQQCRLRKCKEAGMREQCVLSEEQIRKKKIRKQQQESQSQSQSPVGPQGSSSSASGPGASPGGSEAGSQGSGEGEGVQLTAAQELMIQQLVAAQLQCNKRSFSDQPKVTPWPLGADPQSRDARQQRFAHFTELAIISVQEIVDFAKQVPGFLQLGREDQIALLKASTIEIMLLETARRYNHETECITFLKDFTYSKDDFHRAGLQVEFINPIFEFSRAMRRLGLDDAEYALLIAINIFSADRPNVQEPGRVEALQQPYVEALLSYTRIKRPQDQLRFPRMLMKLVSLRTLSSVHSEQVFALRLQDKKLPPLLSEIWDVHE

[9] = biological target: T4, Retinoic acid receptor beta; assay type: functional, cell-based; remark: listed apart in the source
[10] = biological target: T5, Retinoic acid receptor gamma; assay type: functional, cell-based; remark: listed apart in the source
[11] = biological target: T6, Retinoic acid receptor alpha (Homo sapiens, UniProt P10276); assay type: functional, cell-based
T6 sequence (P10276 whole entry): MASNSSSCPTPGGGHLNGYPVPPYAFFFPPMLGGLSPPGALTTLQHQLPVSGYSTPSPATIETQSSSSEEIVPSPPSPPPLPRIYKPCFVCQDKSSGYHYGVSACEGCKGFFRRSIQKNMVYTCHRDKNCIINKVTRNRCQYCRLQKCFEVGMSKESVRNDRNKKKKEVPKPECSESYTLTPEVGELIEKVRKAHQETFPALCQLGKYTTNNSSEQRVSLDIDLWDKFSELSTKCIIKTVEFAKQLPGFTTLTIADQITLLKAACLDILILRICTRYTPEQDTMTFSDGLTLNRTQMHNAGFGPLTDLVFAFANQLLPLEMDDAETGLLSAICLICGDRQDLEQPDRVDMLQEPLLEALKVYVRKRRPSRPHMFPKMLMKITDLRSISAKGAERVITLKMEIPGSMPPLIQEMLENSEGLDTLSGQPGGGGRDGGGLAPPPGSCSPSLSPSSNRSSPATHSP

[12] = biological target: T7, Peroxisome proliferator-activated receptor alpha (Homo sapiens, UniProt Q07869); assay type: functional
T7 sequence (Q07869 whole entry): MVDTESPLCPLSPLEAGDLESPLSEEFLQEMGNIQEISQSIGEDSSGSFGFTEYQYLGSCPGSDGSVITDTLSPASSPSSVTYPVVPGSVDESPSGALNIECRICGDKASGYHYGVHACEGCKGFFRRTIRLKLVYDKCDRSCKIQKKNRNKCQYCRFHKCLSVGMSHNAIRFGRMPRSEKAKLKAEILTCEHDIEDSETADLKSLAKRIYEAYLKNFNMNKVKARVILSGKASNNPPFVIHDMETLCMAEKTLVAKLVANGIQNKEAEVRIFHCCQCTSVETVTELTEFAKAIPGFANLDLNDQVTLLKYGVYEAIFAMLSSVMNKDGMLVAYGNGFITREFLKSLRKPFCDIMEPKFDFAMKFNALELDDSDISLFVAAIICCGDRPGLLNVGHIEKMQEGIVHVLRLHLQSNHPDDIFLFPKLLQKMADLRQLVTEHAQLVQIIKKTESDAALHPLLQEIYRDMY

[13] = biological target: T6, Retinoic acid receptor alpha; assay type: functional, cell-based; remark: listed apart in the source
[14] = biological target: Oxysterols receptor LXR-alpha (Homo sapiens, UniProt Q13133); assay type: functional
Chain of Oxysterols receptor LXR-alpha (Q13133 whole entry): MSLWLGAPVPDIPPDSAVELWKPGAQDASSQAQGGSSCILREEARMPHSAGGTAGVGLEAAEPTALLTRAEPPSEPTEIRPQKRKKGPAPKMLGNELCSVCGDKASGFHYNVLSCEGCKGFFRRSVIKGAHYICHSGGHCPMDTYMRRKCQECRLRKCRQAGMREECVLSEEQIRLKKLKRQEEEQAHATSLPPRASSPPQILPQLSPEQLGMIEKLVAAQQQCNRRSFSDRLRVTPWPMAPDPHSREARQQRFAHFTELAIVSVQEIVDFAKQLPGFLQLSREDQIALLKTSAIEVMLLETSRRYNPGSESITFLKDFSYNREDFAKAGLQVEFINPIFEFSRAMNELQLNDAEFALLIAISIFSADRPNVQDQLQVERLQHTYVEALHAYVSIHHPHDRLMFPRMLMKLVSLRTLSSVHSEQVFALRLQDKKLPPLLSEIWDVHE

[15] = biological target: T7, Peroxisome proliferator-activated receptor alpha; assay type: functional; remark: listed apart in the source
[16] = biological target: T8, Muscarinic acetylcholine receptor M1 (Homo sapiens, UniProt P11229); assay type: functional, cell-based
T8 sequence (P11229 whole entry): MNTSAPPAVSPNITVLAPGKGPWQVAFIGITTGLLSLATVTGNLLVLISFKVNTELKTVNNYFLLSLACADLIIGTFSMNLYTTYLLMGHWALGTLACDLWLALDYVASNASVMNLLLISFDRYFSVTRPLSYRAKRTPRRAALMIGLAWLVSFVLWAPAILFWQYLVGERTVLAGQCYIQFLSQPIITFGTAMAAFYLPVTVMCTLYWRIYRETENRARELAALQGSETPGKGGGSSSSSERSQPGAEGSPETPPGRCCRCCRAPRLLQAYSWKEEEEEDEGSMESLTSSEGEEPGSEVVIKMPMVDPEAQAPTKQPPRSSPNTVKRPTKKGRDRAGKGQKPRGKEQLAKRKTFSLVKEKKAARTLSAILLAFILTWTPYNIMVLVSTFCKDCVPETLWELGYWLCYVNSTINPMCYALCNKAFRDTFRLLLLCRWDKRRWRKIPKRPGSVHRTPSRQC
Note: assay procedure not described here.

CCOc1nc2cccc(C(=O)O)c2n1Cc1ccc(-c2ccccc2-c2nnn[nH]2)cc1
AC50 [1]: 0.0004 µM

O=C(O)Cc1ccccc1Nc1c(Cl)cccc1Cl [DICLOFENAC]
AC50 [2]: 85 µM

CC[C@@H](CO)NC(=O)[C@@H]1C=C2c3cccc4c3c(cn4C)C[C@H]2N(C)C1 [METHYSERGIDE]
AC50 [3]: 0.17 µM

CC(C)C[C@H](NC(=O)[C@@H](O)[C@H](N)Cc1ccccc1)C(=O)O [UBENIMEX]
AC50 [4]: > 30 µM

COc1cc(C(=O)NS(=O)(=O)c2ccccc2C)ccc1Cc1cn(C)c2ccc(NC(=O)OC3CCCC3)cc12 [ZAFIRLUKAST]
AC50 [5]: 13 µM | AC50 [6]: 50 µM | AC50 [7]: > 30 µM | AC50 [8]: > 30 µM | AC50 [9]: > 30 µM | AC50 [10]: > 30 µM | AC50 [11]: > 30 µM | AC50 [12]: > 30 µM | AC50 [13]: > 30 µM | AC50 [14]: > 30 µM | AC50 [15]: > 30 µM

O=C1Cc2cc(CCN3CCN(c4nsc5ccccc45)CC3)c(Cl)cc2N1 [ZIPRASIDONE]
AC50 [16]: 20 µM
